Patent US5411977A, “Substituted 2,5-diaryl-4-isothiazolin-3-ones as antiinflammatory and antithrombotic agents” (The Dupont Merck Pharmaceutical Company, priority 1993, dated 1995)

The compounds below were run on IL-lb-induced proteoglycan breakdown in bovine nasal cartilage (assay: in vitro cytokine-induced cartilage degradation assay (Bovine Nasal Septum Cartilage Degradation Assay)). Details: Bos taurus; IL-lb (500 ng/ml), 40 hours, 37° C.
Format: cell-based
Procedure: The compounds are efficacious in an in vitro cytokine-induced cartilage degradationassay (Arner EC and Pratta MA 1989. Arthritis Rheum 32:288-297). The activity of these compounds in blocking IL-lb-induced proteoglycan breakdown in bovine nasal cartilage was assessed.
Bovine nasal cartilage was incubated in Dulbecco's 10 modified Eagle's Medium (DMEM) containing 5% FCS and antibiotics at 37° C. in an atmosphere of 95% air and 5% CO2 for 40 hours in the absence or presence of IL-lb (500 ng/ml), with or without compound. Compounds were dissolved in DMSO (10^-2M) and further diluted with 15 medial to the required concentration and were included throughout the culture period. At the end of incubation, media were removed and assayed proteoglycan breakdown products using the 1,9 dimethylmethylene blue assay for glycosaminoglycans. Compounds were evaluated for the ability to block the stimulated release of proteoglycan in response to IL-l.

Row | SMILES | IC50
1 | O=c1cc(-c2ccccc2C(F)(F)F)sn1-c1ccccc1 [Example 34] | 7.2 µM
2 | N#Cc1ccc(-n2sc(-c3ccccc3)cc2=O)cc1 [Example 18] | 7.8 µM
3 | O=c1cc(-c2ccccc2)sn1-c1ccc(Cl)cc1 [Example 13] | 14.8 µM
4 | CCOC(=O)c1ccccc1-n1sc(-c2ccccc2)cc1=O [Example 38] | 12 µM
5 | O=c1cc(-c2ccccc2)sn1-c1cccc(Cl)c1 [Example 19] | 11.3 µM
6 | O=c1cc(-c2ccccc2)sn1-c1ccc(C(F)(F)F)cc1 [Example 15] | 7.2 µM
7 | COc1ccccc1-c1cc(=O)n(-c2ccccc2)s1 [Example 12] | 34.5 µM
8 | O=c1cc(-c2ccccc2Cl)sn1-c1ccccc1 [Example 11] | 11.2 µM
9 | O=c1cc(-c2ccccc2)sn1-c1cccc(C(F)(F)F)c1 [Example 21] | 7 µM
10 | O=c1cc(-c2ccccc2)sn1-c1ccc([N+](=O)[O-])cc1 [Example 16] | 31 µM
11 | Cc1cc([N+](=O)[O-])ccc1-n1sc(-c2ccccc2)cc1=O [Example 17] | 14 µM
12 | O=c1c(-c2ccccc2)c(-c2ccccc2)sn1-c1ccccc1 [Example 10, 4,5,N-triphenyl-4-isothiazolin-3-one] | 43.5 µM
13 | O=c1cc(-c2cccc(C(F)(F)F)c2)sn1-c1ccccc1 [Example 33] | 14 µM
14 | O=c1cc(-c2ccc(Cl)cc2)sn1-c1ccccc1 [Example 28] | 14.8 µM
15 | O=c1cc(-c2ccccc2)sn1-c1nc2ccccc2s1 [Example 8, N-(2-benzothiazolyl)-5-phenyl-4-isothiazolin-3-one] | 15 µM
16 | CCOC(=O)c1cccc(-n2sc(-c3ccccc3)cc2=O)c1 [Example 37] | 7.8 µM
17 | CCOC(=O)c1ccc(-n2sc(-c3ccccc3)cc2=O)cc1 [Example 4, N-(4-carbethoxyphenyl)-5-phenyl-4-isothiazolin-3-one] | 8.3 µM
18 | O=c1cc(-c2cccc(Cl)c2)sn1-c1ccccc1 [Example 29] | 18.5 µM
19 | Cc1ccc(-n2sc(-c3ccccc3)cc2=O)cc1 [Example 1, N-(4-methylphenyl)-5-phenyl-4-isothiazolin-3-one] | 13.2 µM
20 | COc1cccc(-n2sc(-c3ccccc3)cc2=O)c1 [Example 20] | 19 µM

Same assay, conditions: Bos taurus; at 30 μM; IL-lb (500 ng/ml), 40 hours, 37° C.

Row | SMILES | inhibition at 30 µM
21 | O=C(O)c1ccc(-c2cc(=O)n(-c3ccccc3)s2)cc1 [Example 9, 5-(4-carboxyphenyl)-N-phenyl-4-isothiazolin-3-one] | 18%
22 | O=c1cc(-c2ccccc2)sn1-c1ccccc1Cl [Example 23] | 33%
23 | O=c1cc(-c2ccccc2)sn1-c1ccccc1[N+](=O)[O-] [Example 26, N-(2-nitrophenyl)-5-phenyl-4-isothiazolin-3-one] | 43%
24 | Nc1ccc(-n2sc(-c3ccccc3)cc2=O)cc1 [Example 39, N-(4-aminophenyl)-5-phenyl-4-isothiazolin-3-one] | 32%
25 | Nc1ccccc1-n1sc(-c2ccccc2)cc1=O [Example 6, N-(2-aminophenyl) -5-phenyl-4-isothiazolin-3-one] | 19%
26 | COc1ccccc1-n1sc(-c2ccccc2)cc1=O [Example 24] | 61%
27 | Cc1ccccc1-n1sc(-c2ccccc2)cc1=O [Example 22] | 52%
28 | COc1ccc(-c2cc(=O)n(-c3ccccc3)s2)cc1 [Example 30] | 37%
29 | COc1ccc(-n2sc(-c3ccccc3)cc2=O)cc1 [Example 14] | 85%
30 | O=C(O)c1ccccc1-n1sc(-c2ccccc2)cc1=O [Example 36] | 26%
31 | NC(=O)c1ccc(-n2sc(-c3ccccc3)cc2=O)cc1 [Example 5, N-(4-carboxamidophenyl)-5-phenyl-4-isothiazolin-3-one] | 42%
32 | O=c1cc(-c2ccccc2)sn1-c1ccc(N(S(=O)(=O)C(F)(F)F)S(=O)(=O)C(F)(F)F)cc1 [Example 7, N-(4-(bistrifluoromethane)sulfonamidophenyl)-5-phenyl-4-isothiazolin-3-one] | 48%
33 | O=c1cc(-c2ccc(C(F)(F)F)cc2)sn1-c1ccccc1 [Example 32] | 25%
34 | O=c1cc(-c2ccccc2)sn1-c1ccccc1C(F)(F)F [Example 25] | 25%
35 | O=C(O)c1cccc(-n2sc(-c3ccccc3)cc2=O)c1 [Example 35] | 13%
36 | O=c1c(Br)c(-c2ccccc2)sn1-c1ccccc1 [Example 2, 4-bromo-N,5-diphenyl-4-isothiazolin-3-one] | 38%
37 | Cc1cc(N)ccc1-n1sc(-c2ccccc2)cc1=O [Example 40] | 14%
38 | O=C(O)c1ccc(-n2sc(-c3ccccc3)cc2=O)cc1 [Example 3, N-(4-carboxyphenyl)-5-phenyl-4-isothiazolin-3-one] | 19%
